Consider 1 molecule from patent publication US6645774B1 (Synaptic Pharmaceutical Corporation, priority 1994, dated 2003).

In one assay the target is human 5-HT7 receptor (Homo sapiens, UniProt P34969). Kind of assay: Cross-reactivity binding, human 5-HT7 receptor.
In another assay the target is T1, human 5HT1F receptor (Homo sapiens, UniProt P30939).
T1 sequence (P30939 1-366): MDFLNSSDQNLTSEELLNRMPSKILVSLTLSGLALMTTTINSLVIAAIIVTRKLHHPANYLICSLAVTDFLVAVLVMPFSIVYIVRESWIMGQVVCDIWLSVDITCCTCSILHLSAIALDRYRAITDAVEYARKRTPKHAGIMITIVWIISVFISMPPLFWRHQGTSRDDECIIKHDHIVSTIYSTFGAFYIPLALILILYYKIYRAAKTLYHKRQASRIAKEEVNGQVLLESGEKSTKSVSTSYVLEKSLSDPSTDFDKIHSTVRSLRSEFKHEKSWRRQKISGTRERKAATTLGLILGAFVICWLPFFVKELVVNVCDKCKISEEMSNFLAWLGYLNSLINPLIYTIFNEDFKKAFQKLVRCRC
Briefly: Cross-reactivity binding, human 5HT1F receptor.

Another assay addresses human 5HT1E receptor (Homo sapiens, UniProt P28566). Kind of assay: Cross-reactivity binding, human 5HT1E receptor.
The next assay concerns the target 5HT1D2 (Homo sapiens, UniProt P28222). Briefly: Cross-reactivity binding, human 5HT1D2 receptor.
A further assay addresses human 5HT1Dα receptor (Homo sapiens, UniProt P28221). Kind of assay: Cross-reactivity binding, human 5HT1Dα receptor.
Assay [1] has as its target human α1d adrenergic receptor (Homo sapiens, UniProt P25100). Briefly: Cross-reactivity binding, cloned human α1d receptor.
In assay [2] the target is human α1b adrenergic receptor (Homo sapiens, UniProt P35368). Kind of assay: Cross-reactivity binding, cloned human α1b receptor.
In assay [3] the target is human α1a adrenergic receptor (Homo sapiens, UniProt P35348). Kind of assay: Cross-reactivity binding, cloned human α1a receptor.
For assay [4], the target named is human α2A adrenergic receptor (Homo sapiens, UniProt P08913). Briefly: Cross-reactivity binding, cloned human α2a receptor.
The target of assay [5] is human α2B adrenergic receptor (Homo sapiens, UniProt P18089). Kind of assay: Cross-reactivity binding, cloned human α2b receptor.
In assay [6] the target is human α2C adrenergic receptor (Homo sapiens, UniProt P18825). Kind of assay: Cross-reactivity binding, cloned human α2c receptor.
A further assay concerns the target human Y1 receptor (Homo sapiens, UniProt P25929). Briefly: ^125I-PYY binding of compounds to human Y1 receptor, stably transfected cells.
The target of the next assay is T2, human Y2 receptor (Homo sapiens, UniProt P49146).
T2 sequence (P49146 1-381): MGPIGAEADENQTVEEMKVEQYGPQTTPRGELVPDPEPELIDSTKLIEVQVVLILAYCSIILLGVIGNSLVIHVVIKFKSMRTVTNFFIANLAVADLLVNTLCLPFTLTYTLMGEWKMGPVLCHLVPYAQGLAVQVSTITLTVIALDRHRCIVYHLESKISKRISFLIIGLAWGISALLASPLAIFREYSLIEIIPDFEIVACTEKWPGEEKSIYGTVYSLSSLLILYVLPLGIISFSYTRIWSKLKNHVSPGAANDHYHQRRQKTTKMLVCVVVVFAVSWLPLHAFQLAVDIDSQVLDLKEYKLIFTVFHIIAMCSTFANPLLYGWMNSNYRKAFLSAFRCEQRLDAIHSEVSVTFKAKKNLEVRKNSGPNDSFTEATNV
Briefly: ^125I-PYY binding of compounds to human Y2 receptor, stably transfected cells.

Another assay addresses human Y4 receptor (Homo sapiens, UniProt P50391). Briefly: ^125I-PYY binding of compounds to human Y4 receptor, stably transfected cells.

pKi: −log10 of the molar value. Counter-ions that a name gives are not always drawn.

Sequence of 5HT1D2 (P28222 whole entry): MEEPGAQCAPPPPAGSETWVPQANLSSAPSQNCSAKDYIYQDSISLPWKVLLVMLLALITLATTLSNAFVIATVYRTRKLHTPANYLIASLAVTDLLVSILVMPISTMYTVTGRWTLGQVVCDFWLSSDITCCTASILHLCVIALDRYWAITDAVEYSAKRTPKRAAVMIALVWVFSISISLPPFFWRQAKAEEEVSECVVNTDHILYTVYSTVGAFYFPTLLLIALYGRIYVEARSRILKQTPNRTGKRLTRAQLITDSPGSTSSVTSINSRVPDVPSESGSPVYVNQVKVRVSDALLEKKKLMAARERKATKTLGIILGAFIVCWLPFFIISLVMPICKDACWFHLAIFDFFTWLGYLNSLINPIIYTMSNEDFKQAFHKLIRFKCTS
Sequence of human α1d adrenergic receptor (P25100 whole entry): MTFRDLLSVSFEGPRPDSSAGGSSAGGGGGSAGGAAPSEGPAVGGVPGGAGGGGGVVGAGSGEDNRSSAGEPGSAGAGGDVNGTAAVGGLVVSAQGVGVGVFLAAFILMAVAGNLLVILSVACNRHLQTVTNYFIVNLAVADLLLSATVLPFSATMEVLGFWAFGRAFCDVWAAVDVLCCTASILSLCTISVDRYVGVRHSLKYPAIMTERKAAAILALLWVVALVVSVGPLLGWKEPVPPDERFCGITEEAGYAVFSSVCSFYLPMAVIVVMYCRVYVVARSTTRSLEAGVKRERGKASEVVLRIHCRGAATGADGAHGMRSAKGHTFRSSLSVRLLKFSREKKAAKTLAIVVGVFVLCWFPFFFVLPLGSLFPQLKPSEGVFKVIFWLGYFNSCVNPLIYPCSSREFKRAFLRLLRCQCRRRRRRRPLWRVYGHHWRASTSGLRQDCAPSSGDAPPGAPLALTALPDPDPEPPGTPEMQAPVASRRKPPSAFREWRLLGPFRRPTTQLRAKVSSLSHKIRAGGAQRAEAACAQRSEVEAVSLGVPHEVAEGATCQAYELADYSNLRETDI
Sequence of human Y4 receptor (P50391 whole entry): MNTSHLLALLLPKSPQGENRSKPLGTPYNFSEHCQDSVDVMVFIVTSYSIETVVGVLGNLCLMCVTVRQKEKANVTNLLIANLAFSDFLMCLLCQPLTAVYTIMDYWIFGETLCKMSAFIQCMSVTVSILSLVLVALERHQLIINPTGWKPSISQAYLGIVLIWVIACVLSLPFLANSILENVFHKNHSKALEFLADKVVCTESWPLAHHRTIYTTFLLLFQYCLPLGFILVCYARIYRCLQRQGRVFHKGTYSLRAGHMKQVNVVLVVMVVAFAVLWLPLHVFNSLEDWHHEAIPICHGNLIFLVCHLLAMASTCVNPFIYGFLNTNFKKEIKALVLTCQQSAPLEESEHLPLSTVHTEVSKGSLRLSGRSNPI
Sequence of human 5-HT7 receptor (P34969 1-445 isoform P34969-2): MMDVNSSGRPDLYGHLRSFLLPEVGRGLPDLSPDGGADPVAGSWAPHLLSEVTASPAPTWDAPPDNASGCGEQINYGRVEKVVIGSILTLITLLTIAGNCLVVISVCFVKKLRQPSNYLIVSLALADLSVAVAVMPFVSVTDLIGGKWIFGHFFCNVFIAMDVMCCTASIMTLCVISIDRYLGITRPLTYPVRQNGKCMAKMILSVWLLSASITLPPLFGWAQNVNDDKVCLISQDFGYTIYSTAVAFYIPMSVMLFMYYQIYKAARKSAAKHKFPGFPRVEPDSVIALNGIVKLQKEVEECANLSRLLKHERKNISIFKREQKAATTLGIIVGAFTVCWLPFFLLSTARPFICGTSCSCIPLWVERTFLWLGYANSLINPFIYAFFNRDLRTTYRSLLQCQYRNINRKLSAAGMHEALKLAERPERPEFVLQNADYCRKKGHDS
Sequence of human α2C adrenergic receptor (P18825 whole entry): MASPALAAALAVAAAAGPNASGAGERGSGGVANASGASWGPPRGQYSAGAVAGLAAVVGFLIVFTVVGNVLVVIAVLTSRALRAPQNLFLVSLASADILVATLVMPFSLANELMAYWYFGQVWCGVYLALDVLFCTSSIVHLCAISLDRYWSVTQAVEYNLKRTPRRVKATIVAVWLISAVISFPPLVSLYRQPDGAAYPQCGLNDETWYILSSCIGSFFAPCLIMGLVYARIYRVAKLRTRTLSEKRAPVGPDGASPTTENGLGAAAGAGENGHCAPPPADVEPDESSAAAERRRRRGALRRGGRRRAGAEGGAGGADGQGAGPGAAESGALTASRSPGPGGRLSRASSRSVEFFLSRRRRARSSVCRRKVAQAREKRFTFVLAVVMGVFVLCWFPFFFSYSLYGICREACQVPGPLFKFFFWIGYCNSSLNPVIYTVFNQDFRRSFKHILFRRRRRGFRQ
Sequence of human 5HT1E receptor (P28566 whole entry): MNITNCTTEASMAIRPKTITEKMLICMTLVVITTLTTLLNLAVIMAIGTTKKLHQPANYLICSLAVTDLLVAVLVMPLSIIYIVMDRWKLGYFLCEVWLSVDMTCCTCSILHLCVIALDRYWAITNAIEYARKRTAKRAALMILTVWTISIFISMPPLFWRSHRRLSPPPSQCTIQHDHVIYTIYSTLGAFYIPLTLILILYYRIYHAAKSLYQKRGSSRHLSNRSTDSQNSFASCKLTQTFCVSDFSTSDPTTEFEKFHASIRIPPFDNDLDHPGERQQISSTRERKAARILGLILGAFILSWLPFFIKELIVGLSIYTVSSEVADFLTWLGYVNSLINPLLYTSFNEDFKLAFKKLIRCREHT
Sequence of human α2A adrenergic receptor (P08913 whole entry): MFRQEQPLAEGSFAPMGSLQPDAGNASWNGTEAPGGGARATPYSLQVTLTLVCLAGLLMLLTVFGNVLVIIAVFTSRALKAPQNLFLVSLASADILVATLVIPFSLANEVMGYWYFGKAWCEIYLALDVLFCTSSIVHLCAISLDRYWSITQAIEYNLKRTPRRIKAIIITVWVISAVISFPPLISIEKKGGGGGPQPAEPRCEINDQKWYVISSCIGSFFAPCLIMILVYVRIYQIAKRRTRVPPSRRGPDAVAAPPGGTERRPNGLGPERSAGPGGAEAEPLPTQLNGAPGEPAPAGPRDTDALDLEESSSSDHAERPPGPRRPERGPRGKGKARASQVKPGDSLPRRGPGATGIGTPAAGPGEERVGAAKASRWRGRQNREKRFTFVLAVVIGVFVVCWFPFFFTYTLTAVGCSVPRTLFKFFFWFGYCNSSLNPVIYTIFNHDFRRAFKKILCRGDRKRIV
Sequence of human α2B adrenergic receptor (P18089 whole entry): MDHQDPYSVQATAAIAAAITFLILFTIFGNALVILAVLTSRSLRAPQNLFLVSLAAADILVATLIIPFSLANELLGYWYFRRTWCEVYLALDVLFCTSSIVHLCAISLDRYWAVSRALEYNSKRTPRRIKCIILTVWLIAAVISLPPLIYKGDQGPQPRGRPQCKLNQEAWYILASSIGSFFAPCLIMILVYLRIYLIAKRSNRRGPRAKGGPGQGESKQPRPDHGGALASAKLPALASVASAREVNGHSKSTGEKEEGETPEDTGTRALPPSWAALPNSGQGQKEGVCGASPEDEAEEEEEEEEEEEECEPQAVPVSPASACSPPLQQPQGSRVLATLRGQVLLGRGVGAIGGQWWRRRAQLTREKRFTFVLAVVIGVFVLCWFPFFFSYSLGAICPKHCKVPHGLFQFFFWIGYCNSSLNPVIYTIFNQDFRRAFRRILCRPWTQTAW
Sequence of human 5HT1Dα receptor (P28221 whole entry): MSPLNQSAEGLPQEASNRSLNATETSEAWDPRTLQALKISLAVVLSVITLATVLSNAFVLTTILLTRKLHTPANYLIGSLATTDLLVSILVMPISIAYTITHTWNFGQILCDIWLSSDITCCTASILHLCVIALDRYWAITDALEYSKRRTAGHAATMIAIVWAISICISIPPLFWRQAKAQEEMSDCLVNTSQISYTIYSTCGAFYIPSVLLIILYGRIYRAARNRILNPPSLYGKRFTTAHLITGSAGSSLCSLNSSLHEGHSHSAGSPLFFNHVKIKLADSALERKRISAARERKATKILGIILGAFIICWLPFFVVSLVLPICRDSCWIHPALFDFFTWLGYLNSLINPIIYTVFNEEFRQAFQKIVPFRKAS
Sequence of human α1b adrenergic receptor (P35368 whole entry): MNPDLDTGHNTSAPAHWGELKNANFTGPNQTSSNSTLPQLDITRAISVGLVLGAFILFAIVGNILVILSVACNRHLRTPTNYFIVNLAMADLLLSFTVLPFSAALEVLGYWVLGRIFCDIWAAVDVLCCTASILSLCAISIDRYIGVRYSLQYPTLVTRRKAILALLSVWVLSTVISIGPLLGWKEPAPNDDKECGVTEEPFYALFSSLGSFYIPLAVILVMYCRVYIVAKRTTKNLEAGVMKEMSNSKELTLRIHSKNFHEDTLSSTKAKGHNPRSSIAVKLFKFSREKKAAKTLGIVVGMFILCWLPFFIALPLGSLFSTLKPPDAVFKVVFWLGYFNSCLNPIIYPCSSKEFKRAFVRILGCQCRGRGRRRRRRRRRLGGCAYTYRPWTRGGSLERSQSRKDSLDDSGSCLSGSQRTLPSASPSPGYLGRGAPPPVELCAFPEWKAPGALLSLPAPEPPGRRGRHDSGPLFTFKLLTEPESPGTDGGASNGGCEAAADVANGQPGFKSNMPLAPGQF
Sequence of human α1a adrenergic receptor (P35348 whole entry): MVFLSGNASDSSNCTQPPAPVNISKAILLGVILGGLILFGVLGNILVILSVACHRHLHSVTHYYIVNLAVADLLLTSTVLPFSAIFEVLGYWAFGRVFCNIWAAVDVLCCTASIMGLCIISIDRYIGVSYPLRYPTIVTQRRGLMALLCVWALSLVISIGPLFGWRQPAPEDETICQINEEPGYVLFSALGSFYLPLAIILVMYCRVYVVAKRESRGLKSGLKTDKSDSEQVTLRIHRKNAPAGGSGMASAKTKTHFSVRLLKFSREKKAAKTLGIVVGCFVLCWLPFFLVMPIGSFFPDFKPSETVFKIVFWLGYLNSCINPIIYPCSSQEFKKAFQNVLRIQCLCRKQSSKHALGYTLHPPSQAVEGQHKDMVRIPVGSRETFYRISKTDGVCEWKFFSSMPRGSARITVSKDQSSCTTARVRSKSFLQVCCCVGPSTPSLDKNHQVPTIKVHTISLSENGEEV
Experimental for human Y1 receptor: (§1) To prepare membranes from baculovirus infected cells, 2×10^7 Sf21 cells were grown in 150 mm tissue culture dishes and infected with a high-titer stock of hY5BB3.
Experimental for human Y2 receptor: as §1
Experimental for human Y4 receptor: as §1

As usually defined, the pKi is the negative decadic logarithm of the Ki, by convention in mol/L. Consider `CC(=O)O[C@H]1CC[C@H](Nc2nc(Nc3ccccc3)c3ccccc3n2)CC1` [Compound 7, trans-2-(4-Acetoxy-cyclohexylamino)-4-phenylamino-quinazoline Hydrochloride], for which the pKi at human 5-HT7 receptor was 6.64; on human 5HT1F receptor, 5.30; at human 5HT1E receptor, 5.30; on 5HT1D2 it was 5.30; on human 5HT1Dα receptor it was 5.85; in [1] it was 6.46. Further, the pKi in assay [2] is 6.08; in assay [3] it was 6.06; in assay [4], 7.16; in assay [5], 6.09; in assay [6] it was 6.85; on human Y1 receptor, 5.66. Besides, the results for the negative logarithm of the Ki (pKi) at human Y2 receptor and on human Y4 receptor were 5.54 and 5.15, respectively.
